Reference: patent US5925666A, “Pharmaceutical compositions and methods for treating compulsive disorders using pyrrolidine derivatives” (Guilford Pharmaceuticals Inc., priority 1997, dated 1999)
“And” between values parts separate entries of the source, which are not always exact repeats. Equal entries are not always repeated.

Columns and labels:
[1] = molecular target: T1, cocaine binding site of the human dopamine transporter (Homo sapiens, UniProt Q01959); assay: [3H]CFT binding at the cocaine binding site, hDAT cells
T1 construct: expressed in transfected cells
T1 sequence (Q01959 whole entry): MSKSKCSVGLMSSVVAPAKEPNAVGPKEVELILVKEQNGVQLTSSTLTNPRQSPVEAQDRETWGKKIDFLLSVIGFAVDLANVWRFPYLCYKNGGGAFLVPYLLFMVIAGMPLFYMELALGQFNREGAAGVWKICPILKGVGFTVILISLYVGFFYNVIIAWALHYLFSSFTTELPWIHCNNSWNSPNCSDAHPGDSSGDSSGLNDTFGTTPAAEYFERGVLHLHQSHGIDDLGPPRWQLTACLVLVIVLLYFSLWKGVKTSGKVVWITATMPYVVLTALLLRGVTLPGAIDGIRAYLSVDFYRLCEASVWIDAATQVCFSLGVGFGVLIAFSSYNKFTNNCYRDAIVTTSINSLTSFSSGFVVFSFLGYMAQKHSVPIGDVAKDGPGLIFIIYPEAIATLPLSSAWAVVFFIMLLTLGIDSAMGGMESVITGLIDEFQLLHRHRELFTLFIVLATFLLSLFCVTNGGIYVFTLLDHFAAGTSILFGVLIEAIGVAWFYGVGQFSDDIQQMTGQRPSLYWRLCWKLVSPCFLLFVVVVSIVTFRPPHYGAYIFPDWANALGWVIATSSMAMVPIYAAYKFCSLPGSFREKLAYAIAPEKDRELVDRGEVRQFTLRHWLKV

[2] = test system: alcohol-preferring (P) line of rats; assay: Inhibition of ethanol intake in alcohol-preferring rats; assay type: in vivo, rat; conditions: 30 mg/kg i.p.
Method: The effect of systemic administration of (R)-(+)-α,α-diphenyl-2-pyrrolidinemethanol on ethanol intake in the alcohol-preferring (P) line of rats was performed as previously described by Panocka et al., Pharm. Biochem. and Behavior, 1995, 52, 2, 255-259, and Murphy et al., Alcohol, 1985, 2, 349-352. In brief, (R)-(+)-α,α-diphenyl-2-pyrrolidinemethanol (30 mg/kg i.p.) was tested in female P rats (n=8) given daily 1 hour scheduled access to a 10% (v/v) ethanol solution. A within-subject design was used where (R)-(+)-α,α-diphenyl-2-pyrrolidinemethanol treatments were tested once per week. Baseline ethanol drinking consisted of the mean of the 3 days prior to testing in which saline injections were given. (R)-(+)-α,α-diphenyl-2-pyrrolidinemethanol or saline, administered i.p. in 1 ml/kg volumes, were injected 10-15 minutes prior to ethanol access. Twenty-four hour water and daily body weights were recorded to assess non-specific drug effects. Results were analyzed using paired t-tests with baseline and test day values serving as the independent variables. Ethanol intake was recorded as amount of solution consumed (mls).

[3] = molecular target: T2, human dopamine transporter (Homo sapiens, UniProt Q01959); assay: [3H]Dopamine uptake inhibition, hDAT cells; assay type: cell-based; conditions: for Uptake to Binding Ratio (Kiuptake/Kibinding): ratio of Kiuptake to Kibinding at hDAT
T2 construct: expressed in transfected cells
T2 sequence (Q01959 whole entry): as above

[4] = test system: Male Long-Evans rats; assay: Inhibition of nicotine self-administration in male Long-Evans rats; assay type: in vivo, rat; conditions: 10, 20 and 30 mg/kg i.p. 15 minutes before 60 minute session; nicotine 30 μg/kg/infusion; FIG. 1
Method: Male Long-Evans rats were trained to self-administer nicotine on a fixed ratio schedule of reinforcement, as described by Corrigall et al., Psychopharmacology, Vol. 104, No. 2, pp. 171-176 (1991) and Corrigall et al., Psychopharmacology, Vol. 107, Nos. 2-3, pp. 285-289 (1992). In brief, male Long-Evans rats were food deprived for a short period of time (24-48 hours) and trained to press a lever in an operant responding chamber on an FR-1 schedule of food reinforcement. Once trained, each rat was surgically prepared with a chronic intravenous catheter implanted into the jugular vein. The rats were allowed 1 week to recover from surgery.
After 1 week, nicotine self-administration studies were initiated on an FR-1 with a 60 second signaled time-out following each infusion. During time-out, responding on the lever had no scheduled consequence. Nicotine self-administration sessions were 60 minutes in duration. Each nicotine infusion contained 30 μg of nicotine/kg rat and were delivered in a volume of 54 μl over an infusion duration of 0.3 seconds. 15 minutes before the self-administration sessions, the rats were pre-treated intraperitoneally with (R)-(+)-α,α-diphenyl-2-pyrrolidinemethanol at doses of 10, 20 and 30 mg/kg.

[5] = individual rats P31-P40 (b249-b258 in order)

SMILES | Ki [1] [nM] | reduction of ethanol consumption ([2]; 1 hour access period, vs saline baseline, p<0.05) | effect on water consumption ([2]; 24 hours following administration) | Post-drug Water 24 hr ([2]; Means of rats P31-P40) [mL] | Post-drug Weight ([2]; Means of rats P31-P40) [g] | Test Day Ethanol 1 hr (g/kg) ([2]; Means of rats P31-P40) | Test Day Ethanol 1 hr (ml) ([2]; Means of rats P31-P40) [mL] | effect on body weights ([2]; P rats) | 1 hour ethanol consumption ([2]; female P rats, 10% (v/v) ethanol, mean ± S.E.M., saline baseline 8.2±0.8 mls, p<0.05) [mls] | 24 hour water intake ([2]; female P rats, mean ± S.E.M., saline baseline 28±2.2 mls) [mls] | 24 hour body weights ([2]; female P rats, mean ± S.E.M., saline baseline 310±6.1 g) [g] | Post-drug Water 24 hr [2, 5] | Post-drug Weight [2, 5] | Test Day Ethanol 1 hr (g/kg) [2, 5] | Test Day Ethanol 1 hr (ml) [2, 5] | Ki [3] [nM] | Uptake to Binding Ratio (Kiuptake/Kibinding) [3] | nicotine self-administration [4]
OC(c1ccccc1)(c1ccccc1)[C@H]1CCCN1 [Compound 1, (R)-(+)-α,α-diphenyl-2-pyrrolidinemethanol] | 40 | approximately 45% | no effect | 25 | 300 | 1.2 | 4.5 | not altered | 4.5±1.2 | 25±2.1 | 300 ± 6.2 | 23 mL and 26 mL and 28 mL and 32 mL and 18 mL and 12 mL | 329 g and 291 g and 294 g and 305 g and 290 g and 297 g and 312 g and 263 g and 323 g | 1.9 g/kg and 0.3 g/kg and 0.5 g/kg and 2.4 g/kg and 1.0 g/kg and 0.8 g/kg and 0 g/kg | 8 mL and 7 mL and 1 mL and 2 mL and 10 mL and 9 mL and 4 mL and 3 mL and 0 mL | 170 | 4.25 | dose-dependently attenuated
OC(c1ccccc1)(c1ccccc1)[C@@H]1CCCN1 [Compound 2, (S)-(-)-α,α-diphenyl-2-pyrrolidinemethanol] | 400 |  |  |  |  |  |  |  |  |  |  |  |  |  |  | 1650 | 4.12 | 
CCCN1CCC[C@H]1C(O)(c1ccccc1)c1ccccc1 [Compound 3, (S)-(-)-1-propyl-α,α-diphenyl-2-pyrrolidinemethanol] | 3300 |  |  |  |  |  |  |  |  |  |  |  |  |  |  | 10300 | 3.12 | 
Cc1cc(C(O)(c2ccc(F)c(C)c2)[C@@H]2CCCN2)ccc1F [Compound 4, (S)-α,α-Bis(3-methyl-4-fluorophenyl)-2-pyrrolidinemethanol] | 260 |  |  |  |  |  |  |  |  |  |  |  |  |  |  | 440 | 1.69 | 
